Patent US20250382272A1, “CRYSTALLINE FORM OF INDAZIFLAM, METHODS FOR ITS PREPARATION AND USE THEREOF” (ADAMA AGAN LTD., priority 2022, published 2025)

Experiment: Bulk and tapped density, compressibility index (USP <1174> Powder Flow) of indaziflam crystal samples
Type: physicochemical
Settings: for Tap density: cylinder manually tapped (dropped) 50 times, ~1 second between taps; for flowability: judged from compressibility index as explained in US Pharmacopoeia method <1174> Powder Flow; for Bulk Density: sample poured into tared cylinder to 250 ml mark and weighed
Description: For purposes of sufficiency of disclosure, the “compressibility index” means in the present invention the compressibility index measured according to US Pharmacopoeia method <1174> Powder Flow, revision from 20 Jan. 2023.
Bulk and tapped density measurements are obtained by placing a sample onto a glazed paper. Then, the sample is poured into the tared cylinder until 250 ml mark is reached. The amount of sample is weighed. Rubber bung is fitted into the cylinder. Cylinder is placed in the dropping box and manually tapped (dropped) 50 times with ˜1 second time difference between taps. Compressibility index is calculated from the bulk density and the tapped density as explained in US Pharmacopoeia method <1174> Powder Flow, revision from 20 Jan. 2023.

Compound	Tap density	flowability	Bulk Density
Cc1ccc2c(c1)[C@H](Nc1nc(N)nc([C@@H](C)F)n1)[C@@H](C)C2 [Example 2, N-[(1R,2S)-2,6-dimethyl-2,3-dihydro-1H-inden-yl]-6-[(1R)-1-fluoroethyl]-1,3-5-triazine-2,4-diamine]	0.52 gr/ml	good flowability	0.47 gr/ml
Cc1ccc2c(c1)[C@H](Nc1nc(N)nc([C@@H](C)F)n1)[C@@H](C)C2 [Comparative Example 3, N-[(1R,2S)-2,6-dimethyl-2,3-dihydro-1H-inden-yl]-6-[(1R)-1-fluoroethyl]-1,3-5-triazine-2,4-diamine, reference compound]	0.59 gr/ml	not good	0.48 gr/ml
Cc1ccc2c(c1)[C@H](Nc1nc(N)nc([C@@H](C)F)n1)[C@@H](C)C2 [Example 1, N-[(1R,2S)-2,6-dimethyl-2,3-dihydro-1H-inden-yl]-6-[(1R)-1-fluoroethyl]-1,3-5-triazine-2,4-diamine]	0.65 gr/ml		0.56 gr/ml
